Data on one molecule can be found in patent publication US8022090B2, “Vitamin C composition stabilized with cationic material, anionic material and caffeic acid derivative” (The Faceshop Korea Co., Ltd, priority 2007, dated 2011).

Where only a bound is given, the exact number is not on record here.

The nature of the data set: solubility measurement in purified water and ethanol. To be noted: for solubility: ethanol (25° C.); for density up to which dissolved: 25° C.

In the case of `O=C(O)/C=C/c1ccc(O)c(O)c1` [caffeic acid], the solubility entry is listed as “dissolved” (density 1 mg/mL) and “dissolved” (density 10 mg/mL). Also, the “density up to which dissolved” value is on record as at least 10 mg/mL (ethanol) and “not dissolved” (purified water).
